As usually defined, the IC50 is the concentration that gives 50% inhibition. Read a high IC50 as weaker potency.

Here are results for 4 compounds from patent US20260008770A1, “CBL-B INHIBITORS AND METHODS OF USES THEREOF” (Insilico Medicine IP Limited, priority 2022, published 2026).

For the assay, the target named is Cbl-b protein (CBL-B, GST-Tag) (Homo sapiens (Human), UniProt Q13191). In words: HTRF based binding assay, affinity to Cbl-b protein. In general terms: In TR-FRET formats the signal depends on donor and acceptor labels being close together.
Sequence of Cbl-b protein (CBL-B, GST-Tag) (Q13191 whole entry): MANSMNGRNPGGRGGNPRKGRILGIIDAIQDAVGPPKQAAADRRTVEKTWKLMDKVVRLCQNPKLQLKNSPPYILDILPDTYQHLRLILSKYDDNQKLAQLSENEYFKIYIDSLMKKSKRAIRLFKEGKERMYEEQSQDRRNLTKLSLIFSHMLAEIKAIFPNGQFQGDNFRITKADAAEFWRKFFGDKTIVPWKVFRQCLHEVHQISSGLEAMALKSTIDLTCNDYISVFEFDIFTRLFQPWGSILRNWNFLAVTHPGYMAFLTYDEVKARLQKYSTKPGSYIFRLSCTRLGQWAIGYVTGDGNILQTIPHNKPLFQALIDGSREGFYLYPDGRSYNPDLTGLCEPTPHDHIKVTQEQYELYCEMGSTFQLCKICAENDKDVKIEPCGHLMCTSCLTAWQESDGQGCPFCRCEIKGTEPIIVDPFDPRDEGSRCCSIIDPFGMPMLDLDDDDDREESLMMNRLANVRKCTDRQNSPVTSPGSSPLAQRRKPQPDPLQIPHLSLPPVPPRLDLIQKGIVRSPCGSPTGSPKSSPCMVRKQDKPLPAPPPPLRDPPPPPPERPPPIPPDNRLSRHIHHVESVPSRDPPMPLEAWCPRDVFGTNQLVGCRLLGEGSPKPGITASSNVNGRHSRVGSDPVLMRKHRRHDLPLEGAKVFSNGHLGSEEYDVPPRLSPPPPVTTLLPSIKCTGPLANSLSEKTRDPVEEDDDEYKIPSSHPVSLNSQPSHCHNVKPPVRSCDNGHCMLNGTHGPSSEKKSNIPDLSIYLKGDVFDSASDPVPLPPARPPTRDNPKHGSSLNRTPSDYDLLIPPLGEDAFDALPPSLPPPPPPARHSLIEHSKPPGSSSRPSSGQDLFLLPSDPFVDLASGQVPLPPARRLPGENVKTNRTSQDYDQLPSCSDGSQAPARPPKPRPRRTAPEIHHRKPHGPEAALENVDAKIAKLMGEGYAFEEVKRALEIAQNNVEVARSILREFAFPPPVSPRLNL
[1] abbreviates: HTRF binding, CBL-B (GST-Tag), fluorescence labeled Cbl-b binding probe.

Read-outs that look alike come from different tables or passages of the source.

For `Cn1cnnc1[C@]1(c2ccnc(-n3cnc4c(C(F)(F)F)cc(CN5CCC[C@H](CF)C5)cc4c3=O)c2)C[C@H](C)C1` [Example 105], under setting [1], the IC50 was less than 20 nM.

The compound `CC1CC(c2cc(F)nc(-n3cnc4c(C(F)(F)F)cc(CN5CCC[C@H](C)C5)cc4c3=O)c2)(c2nncn2C)C1` (stereo partly shown) [Example 44] gave an IC50 of 20 to 50 nM.

The compound `Cc1cc(C2(c3nncn3C)CC(C)C2)cc(-n2cnc3c(C(F)(F)F)cc(CN4CCC[C@H](C)C4)cc3c2=O)n1` (stereo partly shown) [Example 45] showed an IC50 of 50 to 500 nM. As to `C[C@@H]1CN(Cc2cc(C(F)(F)F)c3ncn(-c4cc([C@]5(c6nncn6C)C[C@@H](C)C5)cc(OCF)n4)c(=O)c3c2)CCC1F` (stereo partly shown) [Example 106], the IC50 under setting [1] is less than 20 nM.
